This is an account of results in US20030077740A1, “Presenilin/Crk binding polypeptides (PCBP) and methods of use thereof” (priority 2001, published 2003).

In test [1] the test system is B103 (APP695) cells. Briefly: intracellular APP level and pulse-chase turnover in B103 cells. The test is classed as cell-based, rat.
For test [2], the system named is B103 (APP695) cells. The test can be described thus: APP secretion by transfected B103 (APP695) cells, Western blotting. The test is classed as cell-based, rat. A general note: A western blot detects proteins with antibodies after separation by electrophoresis.
A further test concerns HEK293 cells. The test can be described thus: secretion of endogenous APP751 by HEK293 cells. Particulars: HEK293 cells expressing PBP. The test is classed as cell-based. The protocol:
Western blotting, metabolic labeling and immunoprecipitation: For western blotting, cells were washed twice with ice-cold PBS and lysed in lysis buffer (1% Triton, 50 mM Hepes pH 7.5, 50 mM NaCl, 5 mM EDTA, 1 mM Na3VO4, 50 mM NaF, 10 mM Na4P2O7, plus a mixture of protease inhibitors (Complete Mini; Roche, Ind., USA). Protein concentrations were determined by Coomassie Plus (Pierce; IL, USA). The same amount of protein from each sample was separated on Novex pre-cast polyacrylamide gels (Invitrogen; CA, USA), and transferred to Immobulin membranes (Millipore; MA, USA). The membranes were blocked with 5% non-fat milk in Tris-buffered saline for 1 hour at room temperature. Following overnight incubation at 4° C. with primary antibodies, the antigens are detected with horseradish peroxidase-conjugated secondary antibodies (Bio-Rad; CA, USA; 1:20,000), an ECL kit (Amersham; NJ, USA), and exposed to films. For pulse-chase experiments, cells were grown to 80% confluency and incubated in methionine-free DMEM for 90 min. […] Protein concentrations were determined and the same amounts of proteins were immunoprecipitated with antibodies at 4° C. overnight 25 μl of anti-mouse IgG agarose (Roche) was then added to each sample and incubated at 4° C. for 2 hours on a rocker platform. […] The gels were dried and subjected to autoradiography and quantitated by NIH image. […]

Test [3] deals with Ca2+-activated Cl- current. The test can be described thus: Ca2+-activated Cl- current induced by serum in Xenopus oocytes. The test is classed as cell-based. An excerpt:
Xenopus oocytes contain a plasma membrane CF channel which is activated by increases in intracellular Ca^2+, and intracellular Ca^2+ release is activated exclusively by inositol 1,4,5-triphosphate (IP3) Miledi & Parker, J. Physiol., 415:189-210 (1989)). Lysophosphatidic acid (LPA) increases the Ca^2+-activated Cl^− current in oocytes expressing PS1 relative to control oocytes (Leissring et al. (1999)). Since PBP can associate with PS1, the effect of the interaction of PBP with PS1 on the activation of Ca^2+-activated Cl^− current induced by serum (Miledi & Parker (1989)) was examined with Xenopus oocytes. […] Injection of cRNAs into Xenopus oocytes and the electrophysiological recordings were done as described previously (Kimura & Schubert, Proc. Natl. Acad. Sci. (USA), 90:7508-7512 (1993)).

The target in the next test is T1, PS1 (Homo sapiens, UniProt P49768, L392V).
T1 construct: the large hydrophilic loop region of PS1 (amino acids 1-81, 429-468, 263-407, respectively) were inserted into the pGBT9 vector; expressed in transfected cells; host or cells: yeast Y190
The test can be described thus: yeast two-hybrid interaction with PS1. The test is classed as binding. The conditions noted are these: yeast two-hybrid system.

Turning to “PBP: novel 2027 amino acid protein, 233 kD, binds presenilins and Crk; expressed from cDNA in cells (KYGVVICSFRGSVPQGLVLEIGETVQILEKCEGWYRGVSTKKPNVKGLFPANYIHLK; listed as Mus musculus)”, the “intracellular APP protein level, pulse-chase” value in the test on B103 (APP695) cells [1] (10 min 35S-methionine label, chase 15-60 min) is on record as “rapidly decreased”. Also, the “full length APP, intracellular level” value in the test with B103 (APP695) cells [1] (APP695/PBP relative to APP695 cells, antibodies 6E10 and 22C11) is “reduced”. In the test on B103 (APP695) cells [2] (RT-PCR), the “abundance of APP mRNAs” value is reported as “not altered”. In addition, the “secretion of sAPPβ” value in the test with B103 (APP695) cells [2] (antibodies 22C11, GID and 6E10, vs cells without PBP) is “Less secretion”. In addition, in the test with B103 (APP695) cells [2] (co-expression with WT PS1 or FAD PS1 (L392V), relative to PBP alone), the sAPPα secretion result is “further reduced”. Further, in the test on B103 (APP695) cells [2] (specificity control), the “secretion of β-laminin” value is on record as “no effect”. The “secretion of sAPPα” value with B103 (APP695) cells [2] (stable clones vs empty vector, antibody 6E10) was “dramatically decreased”. The APP secretion result in the test with B103 (APP695) cells [2] (transient transfection, uncloned population) was “reduction”. The “secretion of endogenous APP751” value in the test with HEK293 cells is “reduced”. For the same substance, the “Ca2+-activated Cl- current” value is reported as “slightly decreases” in test [3] (PBP alone expressed) and “significantly suppresses” in test [3] (co-expression with PS1, P<0.05 PS1 vs PS1+PBP). The Cl- current entry in test [3] (PS1-loop mutation L392V in the presence of PBP) is “does not suppress”. Further, the “productive interaction with FAD mutant of PS1 (L392V)” value in the test with PS1 was “productive interactions did not occur”.
